Test results published in paper PMC4721142, “Randomized controlled studies on the efficacy of antiarthritic agents in inhibiting cartilage degeneration and pain associated with progression of osteoarthritis in the rat” (Arthritis Research & Therapy, 2016).
Marks after values point to notes of the source that are not given here.

What was measured:
[1] = system: NF-κB; assay: TNF-α-stimulated NF-κB dual luciferase reporter assay in HeLa cells; format: cell-based
How it was run: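 HeLa cells transfected with NF-κB firefly luciferase and Renilla pRLuc-N3 plasmids (8:1), in triplicate; TNF-α stimulation with drug, luminescence read 5 h later by Dual-Glo. Firefly/Renilla ratio normalised to viable transfected cells, expressed as fold over cells without TNF-α or drug.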

[2] = system: MIA rat model of OA; assay: MIA trial 2 digital Randall-Selitto test (daily tacrolimus 0.3 or 0.6 mg/kg i.p., curcumin 50 mg/kg p.o., fluocinolone 0.01 mg/kg s.c.; weekly clonidine 0.1 mg/kg s.c.); format: in vivo
Procedure: The digital Randall-Selitto (dRS) test is said to be a reliable and repeatable measure of neuropathic, bone, and inflammatory pain behavior in several different models, including those of arthritic or joint pain [29, 31, 32]. Baseline and posttreatment values were evaluated using a dRS test device (IITC Life Science, Woodland Hills, CA, USA). Animals were allowed to acclimate to the testing room before all experimentation and for a minimum of 30 minutes before testing. To ensure that their hind limbs were accessible, the animals were gently suspended in a restraint sling. The joint compression threshold was measured once at each time point for the ipsilateral and contralateral knee joints. Pressure was applied gradually over approximately 10 seconds to the medial and lateral aspects of the knee joint. Measurements were taken from the first observed behavior of vocalization, struggle, or withdrawal. A cutoff value of 600 g was used to prevent injury to the animal.
Following isoflurane anesthesia, 50 μl (2 mg) of MIA was injected into the synovial space of the left knee. Animals were randomly assigned to groups, and pain behavior was assessed 7, 14, 21, and 28 days following MIA injection and intervention using WB with the Stoelting incapacitance meter (trial 1) or the dRS test (trials 2 and 3). […] Animals received MIA treatment and then saline control or therapeutic. […] Histopathology was performed at each time point and at study termination. All studies were conducted in accordance with the International Association for the Study of Pain Guidelines and were approved by the Algos Therapeutics, Inc. Institutional Animal Care and Use Committee (IACUC) before initiation. Those running the studies were blind to the treatments. See Additional file 1 for further details.

[3] = system: MMT/MCLT rat model of OA; assay: MMT/MCLT trial 1 weight bearing (daily morphine 10 mg/kg, tacrolimus 0.3 or 0.6 mg/kg, fluocinolone 5 or 10 μg/kg, clonidine 100 μg/kg, alendronate 10 μg/kg i.p.; curcumin, withaferin 50 mg/kg p.o.); format: in vivo
Procedure: Weight bearing (WB; incapacitance) was measured five times per day, once per week, using a Linton incapacitance meter (Stoelting Co., Wood Dale, IL, USA). Rats were acclimated to the meter before study initiation, and, similarly, immediately before WB, the animals were placed in the meter and allowed to acclimate for 2–5 minutes. Each hind paw was placed on a separate force plate so that the force exerted by each side could be averaged over a 5-second interval, and the mean of three readings was taken for each data point. Right paw force was compared with that on the left side for each group to confirm that animals were displaying incapacitance and/or pain behavior. Differences in force (left minus right) and right paw force as a percentage of the total force exerted by both paws were determined and compared between groups.
Following isoflurane anesthesia, the medial collateral ligament was transected just below its attachment to the meniscus in the right knee. The meniscus was cut at its narrowest point away from the ossicles so as not to damage the tibial surface and to ensure that the anterior and posterior meniscus halves were freely movable. […] In trial 2, drugs were administered IA weekly beginning 1 week following surgery. Three weeks postsurgery, animals were humanely killed and their right knees were collected for histopathology. All studies were conducted in accordance with the International Association for the Study of Pain Guidelines and were approved by the Bolder BioPATH IACUC (Boulder, CO, USA) in compliance with regulations before study initiation (IACUC protocol BBP03-006). Those running the studies were blinded to the treatments. See Additional file 1 for further details.
Isoflurane and the right knee area prepared for surgery. A skin incision was made over the medial aspect of the knee and the medial collateral ligament was exposed by blunt dissection and then transected. The medial meniscus was cut through the full thickness to simulate a complete tear and the skin was then closed with suture.
All pharmaceutical agents were prepared and stored as recommended by the supplier. Daily drug preparations were made fresh from stock solutions. […]
In Trial 2 drugs were […]
administered IA weekly beginning one week following surgery. […]
were delivered by gavage and were prepared in 0.3% Methyl Cellulose.
WB was measured five times a day, once a week, using a Linton incapacitance meter (Stoelting Co.) to assess pain behavior. Rats were acclimated to the incapacitance meter prior to study initiation.
Similarly, immediately prior to WB animals were placed in the incapacitance meter and allowed to acclimate for 2-5 minutes. Each hind paw was placed on a separate force plate so that the force exerted by each side could be averaged over a 5 second interval and the mean of three readings taken for each data point. Right paw force was compared to left for each group to confirm that animals were displaying incapacitance / pain behavior. Difference in force (left minus right) and right paw force as a percentage of the total force exerted by both paws were determined and compared between groups. Three weeks after surgery, animals were humanely euthanized and right knees collected for histopathology evaluation.
Figure 2. MMT/MCLT Trial Timeline […]
MMT/MCLT Dosing (once/day)
The study design and animal usage was approved by Bolder BioPATH’s Institutional Animal Care and Use Committee (IACUC) for compliance with regulations prior to study initiation (IACUC […]
Labs. Animals were identified by a distinct mark at the base of the tail delineating group and animal number. After randomization, all cages were labeled with protocol number, group numbers, and animal numbers with appropriate color-coding (see protocol).

[4] = system: HeLa cells; assay: HeLa cell viability (CellTiter-Glo)
How it was run: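 HeLa cells with and without drug were tested for viability by CellTiter-Glo luminescence as a toxicity read-out. In the companion NF-κB reporter assay, cells co-transfected with NF-κB firefly and Renilla luciferase plasmids (8:1) were read by Dual-Glo 5 h later, normalized to viable cells and expressed as fold over unstimulated, untreated cells.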

[5] = day 21, tacrolimus 0.3 mg/kg, other drugs single dose

Row | Compound | Effective range against NFkB [1] | dRS, hours after dosing with significant difference [2, 5] | Weight bearing, hours with significant effect ([3]; day 7, low or only dose) [h] | Non-toxic concentrations [4] [M] | Weight bearing, hours with significant effect ([3]; day 14, low or only dose) | Weight bearing, hours with significant effect ([3]; day 21, low or only dose) [h] | other results
1 | Clc1cccc(Cl)c1N=C1NCCN1 [Clonidine] | Not effective | 3 h | 1 |  |  |  | 
2 | COc1cc(/C=C/C(=O)CC(=O)/C=C/c2ccc(O)c(OC)c2)ccc1O [Curcumin, Diferuloylmethane] |  | Pretrt^d |  | 0 to 33.75 |  |  | dRS, hours after dosing with significant difference ([2]; day 7, tacrolimus 0.3 mg/kg, other drugs single dose): 1 h
3 | CC1(C)O[C@@H]2C[C@H]3[C@@H]4C[C@H](F)C5=CC(=O)C=C[C@]5(C)[C@@]4(F)[C@@H](O)C[C@]3(C)[C@]2(C(=O)CO)O1 [Fluocinolone, Fluocinolone Acetonide] |  |  | 5 |  | 1,3 h | 1 | dRS, hours after dosing with significant difference ([2]; day 14, tacrolimus 0.3 mg/kg, other drugs single dose): 5^e h
4 | C=CC[C@@H]1/C=C(\C)C[C@H](C)C[C@H](OC)[C@H]2O[C@@](O)(C(=O)C(=O)N3CCCC[C@H]3C(=O)O[C@H](/C(C)=C/[C@@H]3CC[C@@H](O)[C@H](OC)C3)[C@H](C)[C@@H](O)CC1=O)[C@H](C)C[C@@H]2OC [Tacrolimus] |  | Pretrt^d | 3 | 0 to 49.6 |  | 3 | dRS, hours after dosing with significant difference ([2]; day 21, tacrolimus 0.6 mg/kg i.p.): 1 h; Weight bearing, hours with significant effect ([3]; day 14, tacrolimus 0.6 mg/kg, fluocinolone 0.010 mg/kg): 1 h
5 | COc1ccc(C=CC(=O)Nc2ccccc2C(=O)O)cc1OC [Tranilast, N-(3′,4′-dimethoxycinnamoyl)anthranilic acid] | None |  |  |  |  |  | 
6 | CC1=C(CO)C(=O)O[C@@H]([C@@H](C)[C@H]2CC[C@H]3[C@@H]4C[C@H]5O[C@]56[C@@H](O)C=CC(=O)[C@]6(C)[C@H]4CC[C@]23C)C1 [Withaferin A] |  |  | 1 | 0 to 17 | 3 h |  | Effective against NF κβ (p<0.05) [1]: 2 to 17 µM
